For 17 compounds, IC50 results are on record in US8623885B2, “Fused tricyclic dual inhibitors of CDK 4/6 and FLT3” (Amgen Inc., priority 2011, dated 2014).

The target of assay [1] is FLT3 enzyme (GST-FLT3 fusion) (Homo sapiens (Human), UniProt P36888). Kind of assay: FLT3 HTRF kinase assay. Particulars: 116 μM ATP. It is filed as biochemical. The procedure:
The FLT3 inhibitory activity of the CDK4/6-FLT3 inhibitors was determined with a HTRF kinase assay. The FLT3 enzyme (GST-FLT3 fusion) was purchased from Carna Biosciences. An ULight-labeled synthetic peptide derived from human Janus kinase 1 (aa1015-1027, ULight-JAK1, PerkinElmer) was utilized as the phosphoacceptor substrate. The assay was conducted in a 384-well white OptiPlate (PerkinElmer). The 20 μL reaction mixture contained 50 nM ULight-JAK1, 116 μM ATP, 0.0385 ng/μL FLT3 and dilutions of test compounds in the kinase buffer (50 mM Hepes, pH 7.6, 1 mM EGTA, 10 mM MgCl2, 2 mM DTT, and 0.005% Tween 20). The reaction was allowed to proceed for 1 hour at room temperature and was stopped by adding 20 μL of 10 mM EDTA, 2 nM LANCE® Eu-W1024 anti-phospho-tyrosine antibody in LANCE® detection buffer (PerkinElmer). The plates were incubated at room temperature for 2 hours after addition of detection reagents and then read on an Envision multimode reader (PerkinElmer).
(§1) IC50 values of the compounds in the above assays were determined by non-linear regression analysis using Prism (GraphPad Software).
Background: In TR-FRET formats the signal depends on donor and acceptor labels being close together.

A further assay concerns the target CDK4/Cyclin D1 (Homo sapiens (Human), UniProt P11802). Briefly: CDK4 filtration kinase assay. It counts as biochemical. Conditions: CDK4/Cyclin D1, Rb fragment substrate, [33P]-ATP filtration assay. Here is the method: The CDK4 and CDK1 inhibitory activity of the CDK4/6-FLT3 inhibitors was determined with a filtration kinase assay. The compounds, kinase and substrate diluted in the kinase buffer (20 mM Tris, pH7.4, 50 mM NaCl, 1 mM DTT, 0.1% BSA) were sequentially added to a 96-well Multiscreen HTS filtration plate (Millipore). The final 100 μL reaction mixture in each well contained 0.3 μg of CDK4/Cyclin D1 or CDK1/Cyclin B (Cell Signaling Technology), 1 μg of Rb fragment (aa773-928, Millipore) for the CDK4 assay or 5 μg of histone H1 for the CDK1 assay and 1 μCi of [^33P]-ATP. The mixture was incubated at room temperature for 1 hour. The proteins in the reaction were then precipitated and washed with cold TCA solution using an aspiration/filtration vacuum system. The plates were dried at room temperature, and the retained radioactivity was measured by scintillation counting.
as §1

The subject of another assay is MOLM13 cells. Briefly: [14C]-thymidine incorporation cell proliferation assay, MOLM13. It counts as cell-based, human. The procedure:
The cell proliferation inhibition potency of the CDK4/6-FLT3 inhibitors was determined by using a [^14C]-thymidine incorporation assay. Exponentially growing cells (MOLM-13, Colo-205, etc.) were seeded in a 96-well Cytostar T plate (GE Healthcare Biosciences) at a density of 5×10^3 cells/well and incubated overnight. Serially diluted compounds and 0.1 μCi of [^14C]-thymidine (GE Healthcare Biosciences) were added to each well on the following day. After 72 hour incubation, isotope incorporation was determined with a β plate counter (Wallac). MOLM13 is a human AML tumor cell line expressing FLT3, FLT3^ITD and wild type Rb.
as §1

Setting [2] is: Homo sapiens, MOLM-13, 72 hour incubation.

Chain of FLT3 enzyme (GST-FLT3 fusion) (P36888 27-993): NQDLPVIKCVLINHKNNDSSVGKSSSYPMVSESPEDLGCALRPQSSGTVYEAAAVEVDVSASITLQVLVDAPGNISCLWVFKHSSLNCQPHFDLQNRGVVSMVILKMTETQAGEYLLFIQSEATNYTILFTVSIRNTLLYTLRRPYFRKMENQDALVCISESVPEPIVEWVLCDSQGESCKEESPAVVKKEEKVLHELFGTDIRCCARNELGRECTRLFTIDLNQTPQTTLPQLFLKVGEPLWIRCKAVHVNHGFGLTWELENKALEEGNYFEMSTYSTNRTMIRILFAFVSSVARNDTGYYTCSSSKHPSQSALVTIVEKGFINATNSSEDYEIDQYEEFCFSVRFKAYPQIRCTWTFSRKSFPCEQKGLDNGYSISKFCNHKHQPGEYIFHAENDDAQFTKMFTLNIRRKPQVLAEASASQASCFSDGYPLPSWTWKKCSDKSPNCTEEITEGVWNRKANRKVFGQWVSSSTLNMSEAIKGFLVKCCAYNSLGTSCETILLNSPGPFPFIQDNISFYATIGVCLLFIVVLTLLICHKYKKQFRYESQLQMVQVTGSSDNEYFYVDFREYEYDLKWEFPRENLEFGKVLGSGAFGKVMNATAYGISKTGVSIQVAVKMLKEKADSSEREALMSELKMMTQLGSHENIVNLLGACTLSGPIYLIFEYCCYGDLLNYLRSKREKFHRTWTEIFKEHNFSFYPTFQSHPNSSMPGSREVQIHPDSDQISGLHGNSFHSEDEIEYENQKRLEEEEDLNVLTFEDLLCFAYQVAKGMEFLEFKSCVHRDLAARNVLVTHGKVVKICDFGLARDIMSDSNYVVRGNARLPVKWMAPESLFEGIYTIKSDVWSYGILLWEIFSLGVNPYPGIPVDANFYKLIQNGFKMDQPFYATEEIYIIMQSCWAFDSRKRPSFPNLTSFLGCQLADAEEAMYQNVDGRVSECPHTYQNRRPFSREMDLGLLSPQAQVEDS
Chain of CDK4/Cyclin D1 (P11802 whole entry, the tested form may be a part): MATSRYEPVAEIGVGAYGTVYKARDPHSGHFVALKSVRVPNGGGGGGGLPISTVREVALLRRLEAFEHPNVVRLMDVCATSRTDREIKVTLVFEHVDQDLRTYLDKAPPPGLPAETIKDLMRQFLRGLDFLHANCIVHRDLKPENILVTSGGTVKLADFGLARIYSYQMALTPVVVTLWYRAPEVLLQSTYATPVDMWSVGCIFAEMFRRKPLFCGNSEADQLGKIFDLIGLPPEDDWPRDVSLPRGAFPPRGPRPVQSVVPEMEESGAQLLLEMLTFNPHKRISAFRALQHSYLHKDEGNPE
Chain of CDK4/Cyclin D1 (P24385 whole entry partner, the tested form may be a part): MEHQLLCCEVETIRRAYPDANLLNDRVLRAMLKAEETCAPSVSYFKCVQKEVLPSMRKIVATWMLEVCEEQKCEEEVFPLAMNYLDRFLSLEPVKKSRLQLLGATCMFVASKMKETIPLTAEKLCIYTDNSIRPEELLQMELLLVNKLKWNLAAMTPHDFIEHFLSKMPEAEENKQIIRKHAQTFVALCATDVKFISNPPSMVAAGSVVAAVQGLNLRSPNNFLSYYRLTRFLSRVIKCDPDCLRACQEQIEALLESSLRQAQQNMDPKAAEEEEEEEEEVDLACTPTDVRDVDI

Broadly, the IC50 is the concentration at which inhibition is half-maximal. Read a high IC50 as a need for much substance. In the case of `CC(=O)N1Cc2ccc(Nc3ncc4c5ccncc5n([C@H]5CC[C@H](C)CC5)c4n3)nc2[C@H](C)C1` (single isomer, unassigned) [Example 18a, 1((R)-8-Methyl-2-((9-((1r,4R)-4-methylcyclohexyl)-9H-pyrido[4′,3′:4,5]pyrrolo[2,3-d]pyrimidin-2-yl)amino)-7,8-dihydro-1,6-naphthyridin-6(5H)-yl)ethanone or 1((S)-8-methyl-2-((9-((1r,4S)-4-methylcyclohexyl)-9H-pyrido[4′,3′:4,5]pyrrolo[2,3-d]pyrimidin-2-yl)amino)-7,8-dihydro-1,6-naphthyridin-6(5H)-yl)ethanone], the 50% inhibitory concentration (IC50) in assay [1] worked out at 1.6 nM; at CDK4/Cyclin D1 it was 18.8 nM; in the assay with MOLM13 cells (72 hour incubation) it was 24.2 nM.

Take `CC(=O)N1Cc2ccc(Nc3ncc4c5ccncc5n([C@H]5CC[C@H](C)CC5)c4n3)nc2[C@@H](C)C1` (single isomer, unassigned) [Example 18b, 1-((R)-8-Methyl-2-((9-((1 r,4R)-4-methylcyclohexyl)-9H-pyrido[4′,3′:4,5]pyrrolo[2,3-d]pyrimidin-2-yl)amino)-7,8-dihydro-1,6-naphthyridin-6(5H)-yl)ethanone or 1-((S)-8-methyl-2-09-((1r,4S)-4-methylcyclohexyl)-9H-pyrido[4′,3′:4,5]pyrrolo[2,3-d]pyrimidin-2-yl)amino)-7,8-dihydro-1,6-naphthyridin-6(5H)-yl)ethanone]: the IC50 in assay [1] came to 2.3 nM; against CDK4/Cyclin D1, 463 nM; with MOLM13 cells (72 hour incubation) it was 20 nM.

In the case of `C[C@H]1CC[C@H](n2c3cnccc3c3cnc(Nc4ccc5c(n4)CCNC5)nc32)CC1` [Example 1, 9-((1r,4r)-4-Methylcyclohexyl)-N-(5,6,7,8-tetrahydro-1,6-naphthyridin-2-yl)-9H-pyrido[4′,3′:4,5]pyrrolo[2,3-d]pyrimidin-2-amine], the IC50 amounted to 1.3 nM in assay [1], 2.1 nM against CDK4/Cyclin D1 and 15.2 nM in the assay on MOLM13 cells (setting [2]).

For the compound `CC(=O)N1CCc2nc(Nc3ncc4c5ccncc5n([C@H]5CC[C@H](C)CC5)c4n3)ccc2C1` [Example 2, 1-(2-((9-((1r,4r)-4-Methylcyclohexyl)-9H-pyrido[4′,3′:4,5]pyrrolo[2,3-d]pyrimidin-2-yl)amino)-7,8-dihydro-1,6-naphthyridin-6(5H)-yl)ethanone], the IC50 stood at 3.2 nM in assay [1], 4.5 nM at CDK4/Cyclin D1 and 22.5 nM in the assay with MOLM13 cells (setting [2]).

Take `C[C@H]1CC[C@H](n2c3cnccc3c3cnc(Nc4ccc5c(n4)CCN(CCO)C5)nc32)CC1` [Example 3, 2-(2-((9-((1r,4r)-4-Methylcyclohexyl)-9H-pyrido[4′,3′:4,5]pyrrolo[2,3-d]pyrimidin-2-yl)amino)-7,8-dihydro-1,6-naphthyridin-6(5H)-yl)ethanol]: the results for the IC50 (in assay [1]; on CDK4/Cyclin D1; in the assay on MOLM13 cells (setting [2])) were 1.8 nM, 2.6 nM and 14.8 nM, respectively.

Turning to `C[C@H]1CC[C@H](n2c3cnccc3c3cnc(Nc4ccc5c(n4)CCN(CCC(F)(F)F)C5)nc32)CC1` [Example 7, 9-((1r,4r)-4-Methylcyclohexyl)-N-(6-(3,3,3-trifluoropropyl)-5,6,7,8-tetrahydro-1,6-naphthyridin-2-yl)-9H-pyrido[4′,3′:4,5]pyrrolo[2,3-d]pyrimidin-2-amine], the results for the IC50 (in assay [1]; with MOLM13 cells (setting [2])) were 21.4 nM and 206 nM, respectively.

`C[C@H]1CC[C@H](n2c3cnccc3c3cnc(Nc4ccc5c(n4)C(O)CN(CCO)C5)nc32)CC1` (stereo partly shown) [Example 17, 6-(2-Hydroxyethyl)-2-((9-((1r,4r)-4-methylcyclohexyl)-9H-pyrido[4′,3′:4,5]pyrrolo[2,3-d]pyrimidin-2-yl)amino)-5,6,7,8-tetrahydro-1,6-naphthyridin-8-ol] showed an IC50 with MOLM13 cells (setting [2]) of 21.9 nM.

Regarding `C[C@H]1CC[C@H](n2c3cnccc3c3cnc(Nc4ccc5c(n4)CNCC5)nc32)CC1` [Example 23, 9-((1r,4r)-4-Methylcyclohexyl)-N-(5,6,7,8-tetrahydro-1,7-naphthyridin-2-yl)-9H-pyrido[4′,3′:4,5]pyrrolo[2,3-d]pyrimidin-2-amine], the IC50 against CDK4/Cyclin D1 was 8.6 nM; in the assay with MOLM13 cells (setting [2]) it was 1.5 nM.

In the case of `C[C@H]1CC[C@H](n2c3cnccc3c3cnc(Nc4cc5c(cn4)CNCC5)nc32)CC1` [Example 24, 9-((1r,4r)-4-Methylcyclohexyl)-N-(5,6,7,8-tetrahydro-2,7-naphthyridin-3-yl)-9H-pyrido[4′,3′:4,5]pyrrolo[2,3-d]pyrimidin-2-amine], the figures for the IC50 at CDK4/Cyclin D1 and in the assay with MOLM13 cells (setting [2]) were 4.7 nM and 3.5 nM, respectively.

Regarding `C[C@H]1CC[C@H](n2c3cnccc3c3cnc(Nc4ccc5c(n4)CN(C(=O)CO)CC5)nc32)CC1` [Example 30, 2-Hydroxy-1-(2-((9-((1r,4r)-4-methylcyclohexyl)-9H-pyrido[4′,3′:4,5]pyrrolo[2,3-d]pyrimidin-2-yl)amino)-5,6-dihydro-1,7-naphthyridin-7(8H)-yl)ethanone], the results for the IC50 on CDK4/Cyclin D1 and in the assay on MOLM13 cells (setting [2]) were 6.3 nM and 3 nM, respectively.

For the compound `C[C@H]1CC[C@H](n2c3cnccc3c3cnc(Nc4cc5c(cn4)CN(C(=O)CO)CC5)nc32)CC1` [Example 31, 2-Hydroxy-1-(6-((9-((1r,4r)-4-methylcyclohexyl)-9H-pyrido[4′,3′:4,5]pyrrolo[2,3-d]pyrimidin-2-yl)amino)-3,4-dihydro-2,7-naphthyridin-2(1H)-yl)ethanone], the values for the IC50 against CDK4/Cyclin D1 and with MOLM13 cells (setting [2]) were 35 nM and 6.7 nM, respectively.

On to `C[C@H](O)C(=O)N1CCc2nc(Nc3ncc4c5ccncc5n([C@H]5CC[C@H](C)CC5)c4n3)ccc2C1` [Example 32, (S)-2-Hydroxy-1-(2-((9-((1r,4r)-4-methylcyclohexyl)-9H-pyrido[4′,3′:4,5]pyrrolo[2,3-d]pyrimidin-2-yl)amino)-7,8-dihydro-1,6-naphthyridin-6(5H)-yl)propan-1-one], for which the IC50 was determined as 12 nM against CDK4/Cyclin D1 and 1.8 nM with MOLM13 cells (setting [2]).

Take `C[C@@H](O)C(=O)N1CCc2nc(Nc3ncc4c5ccncc5n([C@H]5CC[C@H](C)CC5)c4n3)ccc2C1` [Example 33, (R)-2-hydroxy-1-(2-((9-((1r,4r)-4-methylcyclohexyl)-9H-pyrido[4′,3′:4,5]pyrrolo[2,3-d]pyrimidin-2-yl)amino)-7,8-dihydro-1,6-naphthyridin-6(5H)-yl)propan-1-one]: the IC50 was 41 nM on CDK4/Cyclin D1 and 3.1 nM with MOLM13 cells (setting [2]).

In the case of `CN(C)CC(=O)N1CCc2nc(Nc3ncc4c5ccncc5n([C@H]5CC[C@H](C)CC5)c4n3)ccc2C1` [Example 34, 2-(Dimethylamino)-1-(2-((9-((1r,4r)-4-methylcyclohexyl)-9H-pyrido[4′,3′:4,5]pyrrolo[2,3-d]pyrimidin-2-yl)amino)-7,8-dihydro-1,6-naphthyridin-6(5H)-yl)ethanone], the results for the IC50 against CDK4/Cyclin D1 and in the assay with MOLM13 cells (setting [2]) were 3 nM and 0.3 nM, respectively.

Consider `CC(C)(C)OC(=O)N1CCc2ccc(Nc3ncc4c5ccncc5n([C@H]5CC[C@H](C)CC5)c4n3)nc2C1` [Example 35, tert-Butyl 2-((9-((1r,4r)-4-methylcyclohexyl)-9H-pyrido[4′,3′:4,5]pyrrolo[2,3-d]pyrimidin-2-yl)amino)-5,6-dihydro-1,7-naphthyridine-7(8H)-carboxylate], for which the 50% inhibitory concentration (IC50) against CDK4/Cyclin D1 worked out at 26 nM; in the assay on MOLM13 cells (setting [2]), 480 nM.

In turn, `CC(C)(C)OC(=O)N1CCc2cc(Nc3ncc4c5ccncc5n([C@H]5CC[C@H](C)CC5)c4n3)ncc2C1` [Example 36, tert-Butyl 6-((9-((1r,4r)-4-methylcyclohexyl)-9H-pyrido[4′,3′:4,5]pyrrolo[2,3-d]pyrimidin-2-yl)amino)-3,4-dihydro-2,7-naphthyridine-2(1H)-carboxylate] displayed an IC50 against CDK4/Cyclin D1 of 350 nM.

On to `CCN(CC)CC(=O)N1CCc2nc(Nc3ncc4c5ccncc5n([C@H]5CC[C@H](C)CC5)c4n3)ccc2C1` [Example 37, 2-(Diethylamino)-1-(2-((9-((1r,4r)-4-methylcyclohexyl)-9H-pyrido[4′,3′:4,5]pyrrolo[2,3-d]pyrimidin-2-yl)amino)-7,8-dihydro-1,6-naphthyridin-6(5H)-yl)ethanone], for which the IC50 on CDK4/Cyclin D1 came out at 3 nM; with MOLM13 cells (setting [2]), 1.4 nM.
